The source made the active and inactive calls. The calls are words filed in the database; no cut-off is given here.
Tests used:
JIMT-1 [1] = assay: Antiproliferative activity against human JIMT-1 cells after 72 hrs by SRB assay; assay type: functional, cell-based; settings: JIMT-1, 72 h
JIMT-1 [2] = assay: Stabilization of human TACC3 expressed in JIMT-1 cells at 1 uM incubated for 6 hrs by cellular thermal shift assay; assay type: cell-based
[3] = Binding affinity to purified recombinant human TACC3 by isothermal titration calorimetry
JIMT-1 [4] = assay: Stabilization of human TACC3 expressed in JIMT-1 cells at 10 uM incubated for 20 mins and measured in presence of pronase by drug affinity responsive target stability assay; assay type: cell-based
JIMT-1 [5] = assay: Inhibition of colony formation in human JIMT-1 cells at 0.1 to 1 uM assessed as decrease in colony number incubated for 12 days by crystal violet staining based assay; assay type: functional, cell-based; settings: dose 0.1-1 µM, time 12.0 day
JIMT-1 [6] = assay: Induction of mitotic arrest in human JIMT-1 cells assessed as change in p-histone H3 levels and measured by Western blot analysis; assay type: functional, cell-based; settings: dose 0.1-5 µM
JIMT-1 [7] = assay: Induction of apoptosis in human JIMT-1 cells assessed as change in cleaved caspase-3 levels and measured by Western blot analysis; assay type: functional, cell-based; settings: dose 0.1-5 µM
JIMT-1 [8] = assay: Induction of apoptosis in human JIMT-1 cells assessed as change in cleaved PARP levels and measured by Western blot analysis; assay type: functional, cell-based; settings: dose 0.1-5 µM
JIMT-1 [9] = assay: Induction of DNA damage in human JIMT-1 cells assessed as change in p-H2AX levels and measured by Western blot analysis; assay type: functional, cell-based; settings: dose 0.1-5 µM
JIMT-1 [10] = assay: Induction of apoptosis in human JIMT-1 cells assessed as increase in apoptotic cells at 500 nM measured by Annexin-V and PI staining method (reference value: 4.1 +/- 0.3 %); assay type: functional
JIMT-1 [11] = assay: Induction of mitotic arrest in human JIMT-1 cells assessed as increase in aberrant spindle formation at 200 to 500 nM measured by DAPI staining method; assay type: functional, cell-based; settings: dose 200-500 nM
JIMT-1 [12] = assay: Induction of mitotic arrest in human JIMT-1 cells assessed as increase in multipolar spindles formation at 200 to 500 nM; assay type: functional, cell-based; settings: dose 200-500 nM
JIMT-1 [13] = assay: Induction of mitotic arrest in human JIMT-1 cells assessed as increased localization of spindle assembly checkpoint marker BuBR1 to chromosomes at 500 nM measured by immunofluorescence staining method; assay type: functional, cell-based
JIMT-1 [14] = assay: Induction of mitotic arrest in human JIMT-1 cells at 200 nM assessed as change in p-histone H3 levels in presence of Mps1 inhibitor TC Mps1 and measured by Western blot analysis; assay type: functional, cell-based
JIMT-1 [15] = assay: Induction of apoptosis in human JIMT-1 cells at 200 nM assessed as change in cleaved PARP levels in presence of Mps1 inhibitor TC Mps1 and measured by Western blot analysis; assay type: functional, cell-based
JIMT-1 [16] = assay: Induction of DNA damage in human JIMT-1 cells at 200 nM assessed as change in p-H2AX levels in presence of Mps1 inhibitor TC Mps1 and measured by Western blot analysis; assay type: functional, cell-based
RT-112 [17] = assay: Antiproliferative activity against human RT-112 cells after 3 days by SRB assay; assay type: functional, cell-based; settings: RT-112, 72 h
RT-4 = assay: Antiproliferative activity against human RT-4 cells after 3 days by SRB assay; assay type: functional, cell-based; settings: RT-4, 72 h
RT-112 [18] = assay: Induction of mitotic arrest in human RT-112 cells assessed as decrease in ERK1/2 phosphorylation at 5 uM measured by western blot analysis; assay type: functional, cell-based
MCF-12A = assay: Antiproliferative activity against human MCF-12A cells; assay type: functional, cell-based
MDA-MB-231 = assay: Antiproliferative activity against human MDA-MB-231 cells; assay type: functional, cell-based
CAL-51 = assay: Antiproliferative activity against human CAL-51 cells; assay type: functional, cell-based
HCC1143 = assay: Antiproliferative activity against human HCC1143 cells; assay type: functional, cell-based
HCC1954 = assay: Antiproliferative activity against human HCC1954 cells; assay type: functional, cell-based
JIMT-1 [19] = assay: Antitumor activity in human JIMT-1 cells xenografted female immunodeficient nude mouse at 5 mg/kg, po administered every other day for 30 days; assay type: functional, organism-based; settings: time 30.0 day
[20] = Toxicity in human JIMT-1 cells xenografted female immunodeficient nude mouse assessed as effect on body weight at 5 mg/kg, po administered every other day for 30 days; assay type: organism-based; settings: in vivo, 720 h, time 30 day
JIMT-1 [21] = assay: Antitumor activity in human JIMT-1 cells xenografted female nude mouse at 2 mg/kg, po administered every other day; assay type: functional, organism-based
JIMT-1 [22] = assay: Antitumor activity in human JIMT-1 cells xenografted female nude mouse at 2 mg/kg, iv administered once every 2 weeks; assay type: functional, organism-based
JIMT-1 [23] = assay: Antitumor activity in human JIMT-1 cells xenografted female nude mouse at 5 mg/kg, po administered every other day; assay type: functional, organism-based
[24] = Toxicity in human JIMT-1 cells xenografted female nude mouse assessed as effect on body weight at 2 mg/kg, po administered every other day; assay type: organism-based; settings: in vivo
[25] = Toxicity in human JIMT-1 cells xenografted female nude mouse assessed as effect on body weight at 2 mg/kg, iv administered once every 2 weeks; assay type: organism-based; settings: in vivo, 336 h
[26] = Toxicity in human JIMT-1 cells xenografted female nude mouse assessed as effect on body weight at 5 mg/kg, po administered every other day; assay type: organism-based; settings: in vivo
JIMT-1 [27] = assay: Antitumor activity in human JIMT-1 cells xenografted female nude mouse at 25 mg/kg, po administered for 23 days; assay type: functional, organism-based; settings: time 23.0 day
[28] = Toxicity in human JIMT-1 cells xenografted female nude mouse assessed as effect on body weight at 25 mg/kg, po administered for 23 days; assay type: organism-based; settings: in vivo, 552 h, time 23 day
EMT6 = assay: Antitumor activity in mouse EMT6 xenografted cells syngeneic Balb/c mouse
[29] = Toxicity in mouse EMT6 cells xenografted syngeneic Balb/c mouse assessed as animal survival rate measured by Kaplan-Meier plot analysis; settings: in vivo
[30] = Toxicity in mouse EMt6 cells xenografted syngeneic Balb/c mouse assessed as effect on body weight; settings: in vivo
HCT-116 = assay: Antitumor activity in human HCT-116 cells xenografted immunocompromised female nude mouse at 25 to 50 mg/kg, po administered daily; assay type: functional, organism-based; settings: dose 25-50 mg/kg
[31] = Toxicity in human HCT-116 cells xenografted immunocompromised female nude mouse assessed as effect on body weight at 25 to 50 mg/kg, po administered daily; assay type: organism-based; settings: in vivo, dose 25-50 mg/kg
CT26 = assay: Antitumor activity in mouse CT26 cells xenografted syngeneic immunocompetent Balb/c mouse at 25 to 50 mg/kg, po administered daily; assay type: functional, organism-based; settings: dose 25-50 mg/kg
[32] = Toxicity in mouse CT26 cells xenografted syngeneic immunocompetent Balb/c mouse assessed as effect on body weight at 25 to 50 mg/kg, po administered daily; assay type: organism-based; settings: in vivo, dose 25-50 mg/kg
4T1 = assay: Antitumor activity in mouse 4T1-Luc cells xenografted immunocompetent female mouse assessed as impairment of metastatic growth at 50 mg/kg, po administered every day; assay type: functional, organism-based
[33] = Toxicity in mouse 4T1-Luc cells xenografted immunocompetent female mouse assessed as animal survival at 50 mg/kg, po administered every day; assay type: organism-based; settings: in vivo
[34] = Toxicity in female nude mouse assessed as body weight at 100 mg/kg, po after 1 day of administration; assay type: organism-based; settings: in vivo, 24 h
[35] = Toxicity in female nude mouse assessed as body weight at 100 mg/kg, po after 2 days of administration; assay type: organism-based; settings: in vivo, 48 h, time 2 day
[36] = Toxicity in female nude mouse assessed as body weight at 100 mg/kg, po after 3 days of administration; assay type: organism-based; settings: in vivo, 72 h, time 3 day
[37] = Toxicity in female nude mouse assessed as body weight at 100 mg/kg, po after 4 days of administration; assay type: organism-based; settings: in vivo, 96 h, time 4 day
[38] = Toxicity in female nude mouse assessed as body weight at 100 mg/kg, po after 5 days of administration; assay type: organism-based; settings: in vivo, 120 h, time 5 day
[39] = Toxicity in female nude mouse assessed as body weight at 100 mg/kg, po after 6 days of administration; assay type: organism-based; settings: in vivo, 144 h, time 6 day
[40] = Toxicity in female nude mouse assessed as body weight at 100 mg/kg, po after 7 days of administration; assay type: organism-based; settings: in vivo, 168 h, time 7 day
[41] = Toxicity in female nude mouse assessed as body weight at 500 mg/kg, po administered once and measured after 1 day of administration; assay type: organism-based; settings: in vivo, 24 h
[42] = Toxicity in female nude mouse assessed as body weight at 500 mg/kg, po administered once and measured after 2 days of administration; assay type: organism-based; settings: in vivo, 48 h, time 2 day
[43] = Toxicity in female nude mouse assessed as body weight at 500 mg/kg, po administered once and measured after 3 days of administration; assay type: organism-based; settings: in vivo, 72 h, time 3 day
[44] = Toxicity in female nude mouse assessed as organ toxicity at 500 mg/kg, po administered once for 1 to 3 days; assay type: organism-based; settings: in vivo, time 1-3 day
[45] = Kinetic solubility in sodium phosphate buffer at pH 7.4 at 25 degree C after 2 hrs; assay type: physicochemical; settings: read-out: Kinetic_solubility
[46] = Plasma protein binding in human assessed as unbound fraction; assay type: ADME, cell-free

## COc1ccc(-c2cc(Nc3ccnc(N4CCOCC4)n3)on2)cc1
JIMT-1 [1]
  IC50: 120 nM
JIMT-1 [2]
  Activity: Active
[3]
  Kd: 1.5 nM
JIMT-1 [4]
  Activity: Active
JIMT-1 [5]
  Activity: Active
JIMT-1 [6]
  Activity: Dose-Dependent Effect
JIMT-1 [7]
  Activity: Dose-Dependent Effect
JIMT-1 [8]
  Activity: Dose-Dependent Effect
JIMT-1 [9]
  Activity: Dose-Dependent Effect
JIMT-1 [10]
  Activity: 45.6%
JIMT-1 [11]
  Activity: Active
JIMT-1 [12]
  Activity: Active
JIMT-1 [13]
  Activity: Active
JIMT-1 [14]
  Activity: Active
JIMT-1 [15]
  Activity: Active
JIMT-1 [16]
  Activity: Active
RT-112 [17]
  IC50: 300 nM
RT-4
  IC50: 3660 nM
RT-112 [18]
  Activity: Active
MCF-12A
  IC50: > 10000 nM
MDA-MB-231
  Activity: Active
CAL-51
  Activity: Active
HCC1143
  Activity: Active
HCC1954
  Activity: Active
JIMT-1 [19]
  Activity: Active
[20]
  Activity: Non-Toxic
JIMT-1 [21]
  Activity: Active
JIMT-1 [22]
  Activity: Active
JIMT-1 [23]
  Activity: Active
[24]
  Activity: Non-Toxic
[25]
  Activity: Non-Toxic
[26]
  Activity: Non-Toxic
JIMT-1 [27]
  Activity: Active
[28]
  Activity: Non-Toxic
EMT6
  Activity: Active
[29]
  MSD: 22 days
[30]
  Activity: Non-Toxic
HCT-116
  Activity: Active
[31]
  Activity: Non-Toxic
CT26
  Activity: Active
[32]
  Activity: Non-Toxic
4T1
  Activity: Active
[33]
  MSD: 28 days
[34]
  Activity: 17.4 g
[35]
  Activity: 16.2 g
[36]
  Activity: 16.3 g
[37]
  Activity: 17 g
[38]
  Activity: 16.5 g
[39]
  Activity: 16.7 g
[40]
  Activity: 16.8 g
[41]
  Activity: 21.1 g
[42]
  Activity: 20.9 g
[43]
  Activity: 21.5 g
[44]
  Activity: Non-Toxic
[45]
  solubility kinetic at 2 h: < 1 µM
[46]
  Activity: 1.13%

Source: ChEMBL document CHEMBL5052853, “Isoxazole derivatives targeting tacc3 as anticancer agents” (2021)
